Laboratory results as given in patent US6121253A, “Prostaglandin conjugates for treating or preventing bone disease” (Merck Frosst Canada & Co., priority 1999, dated 2000).
Read-outs that look alike come from different tables or passages of the source.

What was measured:
[1] = Uptake/binding of dual-labelled conjugate to human bone powder in fetal bovine serum
Procedure: Dual-labelled conjugate 14 ([^3 H]-PGE2 /[^14 C]-alendronate) (21.64 μCi of ^14 C and 19.05 μCi of ^3 H) is placed in 1 ml 100% fetal bovine serum to yield a final concentration of 3.5 μM. […] of this solution is incubated with 10 mg bone powder for 1, 2, 3 and 5 mins with vigorous shaking. The mixture is centrifuged (20 sec), 125 μl aliquot is taken from each sample and counted in 10 ml Atomlight in an LKB liquid scintillation counter, 125 μl of the radioactive sample is also counted at 0 time. The uptake of radioactivity into the bone powder is calculated by subtracting the dpms in the medium counted at the times indicated above from dpms at 0 time and this number is divided by the dpms at 0 time.

[2] = Dissociation/release of label from human bone powder in fetal bovine serum at 37 C; format: in vitro ADME
Procedure: Dissociation of [^3 H]-PGE2 /[^14 C]-alendronate from human bone powder in fetal bovine serum at 37 C is measured by incubating 10 mg of human one powder with 1 μl [^3 H]-PGE2 /[^14 C]-ABP in 1 ml FBS for 5 mins. The mixture is centrifuged (20 sec), 100 μl aliquot is taken and counted in Atomlight in an LKB liquid scintillation counter. The rest of the 900 μl solution is withdrawn, the bone powder is washed once with 1 ml phosphate buffered saline, 1 ml fresh fetal bovine serum is added and incubated with the bone powder for 15, 24, 39, 48, 59, 79 and 103 hours in a shaking bath at 37° C. 100 μl aliquots are withdrawn at these times and counted in 10 ml Atomlight in an LKB liquid scintillation counter. The release of radioactivity from the human bone powder into the medium is calculated as follows: dpms from 100 μl of the [^3 H]-PGE2 /[^14 C]-ABP at 5 mins are subtracted from dpms at 0 time. The resulting dpms reflect radioactivity taken up by bone powder. The dpms obtained by counting 100 μl aliquots at each time point are then divided by the dpms taken up by bone. 13% of the ^3 H-moiety is released into the medium at 15 hrs and by 103 hours 32.9% of the radioactivity is released into the medium.

[3] = In vivo uptake and release in rat tibiae and femora; set-up: species or system rat (Sprague-Dawley female); settings: single i.v. dose
Procedure: The animals used in this experiment were sacrificed at 24 hours, 14 and 28 days after the compounds claimed in the instant invention were administered. The radioactivity of the ^14 C and ^3 H was measured after incineration of the long bones to determine the percentage of compound retained in the bone. […] High LP levels are normally associated with the breakdown of bone collagen.
Both compounds are administered i.v. via the tail vein to Sprague-Dawley female rats as a radiolabelled compound, equivalent to about 0.3 μCi/animal, [^3 H]-alendronate is administered to nine rats and [^3 H]-PGE2 /[^14 C]-ABP (dual labelled conjugate 14), is administered to seven rats. After 1, 14 or 28 days, animals are sacrificed by CO2 inhalation and the tibiae and femora are dissected, weighed and then stored at -20° C. The amount of radioactivity incorporated into the bone is determined by incineration in a Packard combuster after first air drying the bone for three days at ambient temperature. The percent of the compound retained in the skeleton at each time point is calculated on the basis of the radioactivity, converted to nmoles/gm bone on the assumption that the skeleton represents 8% of the body weight. The skeletal retention is expressed as percent administered dose.

[4] = Characterization of 3H liberated on hydrolysis of conjugate in rat plasma; format: in vitro ADME; settings: conjugate 20, 24 hr, fresh rat plasma, of the initial counts
Procedure: A stock solution of 0.4 μCi conjugate 20 or [^3 H]-PGE2 (0.4 μCi) is incubated in either fresh rat plasma, boiled plasma or PBS (ml) at 37 C. After 4 h or 24 h, 100 μl aliquots are removed, diluted with acetonitrile (100 μl), vortexed and centrifuged. 100 μl of supernatant is separated by HPLC (C-18, 0.5% HOAc in water, 66%: acetonitrile 33%, 1 ml/min) with effluent monitored by an on-line scintillation detector and UV detector. No radioactivity is eluted under these conditions when 0.2 μCi, conjugate 20 (62 μg) is applied. (It is necessary to mix 0.4 mg of unlabelled 20 with 0.1 μCi labelled 20 to recover 0.05 μCi from the HPLC.) Radioactive peaks are identified by coelution with authentic [^3 H]-PGE2 and cold PGA2. An authentic sample of PGB2 is prepared by incubating PGE2 (2.4 mg) with 1 ml rat plasma at 37° C. for 24 hr. The sample, purified by HPLC, will have appropriate ^1 H-NMR, UV and MS. To identify radioactive peaks eluting at the solvent front with incubation of conjugate 20 for 24 hr in fresh rat plasma, the fraction is collected and distilled. The collected distillate has 60% of the initial counts.

[5] = 1, 3 and 6 mg/Kg/day PGE2, rapidly growing rats; cited from earlier work
[6] = cited from earlier work
[7] = cited from earlier work; remark: listed apart in the source
[8] = long term s.c.; adrenal glands, liver, kidneys, and lungs; cited from earlier work
[9] = oral dosing; cited from earlier work
[10] = s.c. over 60, 120, and 180 days

CCCCC[C@@H](/C=C/[C@H]1[C@H](O)CC(=O)[C@@H]1C/C=C\CCCC(=O)O)OC(=O)CSCCCC(P(=O)(O)O)P(=O)(O)O [Conjugate 14, PGE2 bisphosphonate conjugate]
time of uptake to human bone powder ([1]; in vitro): within one minute
uptake of 3H-moiety by human bone powder ([1]; within 1 min): ~53%
uptake of 14C-moiety by human bone powder ([1]; within 1 min): about 76%
uptake of 14C-moiety by human bone powder ([1]; within 1 min, listed as 14 C/^3 H dual labeled compound): About 77%
3H-moiety released into the medium ([2]; 15 hrs, fetal bovine serum, 37° C.): 13%
radioactivity released into the medium (3H-moiety) ([2]; 103 hours, fetal bovine serum, 37° C.): 32.9%
rate of release (disassociation) of PG (3H) moiety from human bone powder ([2]; fetal bovine serum, 37° C., listed as 14 C/^3 H dual labeled compound): approximately 5 %/day
rate of release (disassociation) of PG (3H) moiety from human bone powder ([2]; fetal bovine serum, 37° C., listed as [^3 H]-PGE2 /[^14 C]-alendronate): About 5 %/day
release of the prostaglandin from the bisphosphonate at bone ([2]; radiolabel and radioimmunoassay experiments): confirm release of the prostaglandin from the bisphosphonate at the bone cell site
dpms of 14C-moiety in the medium ([2]; up to 103 hours, fetal bovine serum, 37° C.): not significantly changed
uptake into / delivery to bone in vivo [3]: uptake of the labeled compound shown below into rat tibiae and femora after a single dose was administered intravaneously was demonstrated

CCCCC[C@@H](/C=C/[C@H]1[C@H](O)CC(=O)[C@@H]1C/C=C\CCCC(=O)O)OC(=O)CSCc1cc(CSCC(=O)O[C@H](/C=C/[C@H]2[C@H](O)CC(=O)[C@@H]2C/C=C\CCCC(=O)O)CCCCC)cc(CC(P(=O)(O)O)P(=O)(O)O)c1 [Conjugate 20, Bis-(PGE2)-bisphosphonate conjugate]
counts in collected distillate of radioactive peak eluting at solvent front [4]: 60%

CCCCC[C@H](O)/C=C/[C@H]1[C@H](O)CC(=O)[C@@H]1C/C=C\CCCC(=O)O [PGE2]
hard tissue mass in the secondary spongiosa of the proximal tibial metaphysis [5]: increase in hard tissue mass
number of trabeculae [5]: increase in the number of trabeculae
periosteal and corticoendosteal bone mass ([6]; daily s.c. administration): increases periosteal and corticoendosteal bone mass
bone activity [6, 10]: elevated bone activity
tibial diaphyseal bone mass [6, 10]: increased tibial diaphyseal bone mass
serum phosphate levels ([7]; 1 mg of PGE2): significant decreases
side effects ([7]; s.c., doses of 3 mg/Kg/day or higher, rats): diarrhea and flushing of the extremities along with weight loss
soft tissue weight [8]: soft tissue weight increases in adrenal glands, liver, kidneys, and lungs
side effects [9]: loose stools, diarrhea, vomiting, infected sclerae, and increased serum alkaline phosphatase levels
